Here are results for 17 compounds from patent US8895551B2, “Acrylamide compounds and the use thereof” (Shionogi & Co., Ltd., priority 2009, dated 2014).

For the assay, the target named is T1, N-type calcium channel (NTCC) (Homo sapiens, UniProt Q00975).
T1 construct: host or cells: IMR32 cells differentiated with dibutyryl cyclic AMP and bromodeoxyuridine
T1 sequence (Q00975 whole entry): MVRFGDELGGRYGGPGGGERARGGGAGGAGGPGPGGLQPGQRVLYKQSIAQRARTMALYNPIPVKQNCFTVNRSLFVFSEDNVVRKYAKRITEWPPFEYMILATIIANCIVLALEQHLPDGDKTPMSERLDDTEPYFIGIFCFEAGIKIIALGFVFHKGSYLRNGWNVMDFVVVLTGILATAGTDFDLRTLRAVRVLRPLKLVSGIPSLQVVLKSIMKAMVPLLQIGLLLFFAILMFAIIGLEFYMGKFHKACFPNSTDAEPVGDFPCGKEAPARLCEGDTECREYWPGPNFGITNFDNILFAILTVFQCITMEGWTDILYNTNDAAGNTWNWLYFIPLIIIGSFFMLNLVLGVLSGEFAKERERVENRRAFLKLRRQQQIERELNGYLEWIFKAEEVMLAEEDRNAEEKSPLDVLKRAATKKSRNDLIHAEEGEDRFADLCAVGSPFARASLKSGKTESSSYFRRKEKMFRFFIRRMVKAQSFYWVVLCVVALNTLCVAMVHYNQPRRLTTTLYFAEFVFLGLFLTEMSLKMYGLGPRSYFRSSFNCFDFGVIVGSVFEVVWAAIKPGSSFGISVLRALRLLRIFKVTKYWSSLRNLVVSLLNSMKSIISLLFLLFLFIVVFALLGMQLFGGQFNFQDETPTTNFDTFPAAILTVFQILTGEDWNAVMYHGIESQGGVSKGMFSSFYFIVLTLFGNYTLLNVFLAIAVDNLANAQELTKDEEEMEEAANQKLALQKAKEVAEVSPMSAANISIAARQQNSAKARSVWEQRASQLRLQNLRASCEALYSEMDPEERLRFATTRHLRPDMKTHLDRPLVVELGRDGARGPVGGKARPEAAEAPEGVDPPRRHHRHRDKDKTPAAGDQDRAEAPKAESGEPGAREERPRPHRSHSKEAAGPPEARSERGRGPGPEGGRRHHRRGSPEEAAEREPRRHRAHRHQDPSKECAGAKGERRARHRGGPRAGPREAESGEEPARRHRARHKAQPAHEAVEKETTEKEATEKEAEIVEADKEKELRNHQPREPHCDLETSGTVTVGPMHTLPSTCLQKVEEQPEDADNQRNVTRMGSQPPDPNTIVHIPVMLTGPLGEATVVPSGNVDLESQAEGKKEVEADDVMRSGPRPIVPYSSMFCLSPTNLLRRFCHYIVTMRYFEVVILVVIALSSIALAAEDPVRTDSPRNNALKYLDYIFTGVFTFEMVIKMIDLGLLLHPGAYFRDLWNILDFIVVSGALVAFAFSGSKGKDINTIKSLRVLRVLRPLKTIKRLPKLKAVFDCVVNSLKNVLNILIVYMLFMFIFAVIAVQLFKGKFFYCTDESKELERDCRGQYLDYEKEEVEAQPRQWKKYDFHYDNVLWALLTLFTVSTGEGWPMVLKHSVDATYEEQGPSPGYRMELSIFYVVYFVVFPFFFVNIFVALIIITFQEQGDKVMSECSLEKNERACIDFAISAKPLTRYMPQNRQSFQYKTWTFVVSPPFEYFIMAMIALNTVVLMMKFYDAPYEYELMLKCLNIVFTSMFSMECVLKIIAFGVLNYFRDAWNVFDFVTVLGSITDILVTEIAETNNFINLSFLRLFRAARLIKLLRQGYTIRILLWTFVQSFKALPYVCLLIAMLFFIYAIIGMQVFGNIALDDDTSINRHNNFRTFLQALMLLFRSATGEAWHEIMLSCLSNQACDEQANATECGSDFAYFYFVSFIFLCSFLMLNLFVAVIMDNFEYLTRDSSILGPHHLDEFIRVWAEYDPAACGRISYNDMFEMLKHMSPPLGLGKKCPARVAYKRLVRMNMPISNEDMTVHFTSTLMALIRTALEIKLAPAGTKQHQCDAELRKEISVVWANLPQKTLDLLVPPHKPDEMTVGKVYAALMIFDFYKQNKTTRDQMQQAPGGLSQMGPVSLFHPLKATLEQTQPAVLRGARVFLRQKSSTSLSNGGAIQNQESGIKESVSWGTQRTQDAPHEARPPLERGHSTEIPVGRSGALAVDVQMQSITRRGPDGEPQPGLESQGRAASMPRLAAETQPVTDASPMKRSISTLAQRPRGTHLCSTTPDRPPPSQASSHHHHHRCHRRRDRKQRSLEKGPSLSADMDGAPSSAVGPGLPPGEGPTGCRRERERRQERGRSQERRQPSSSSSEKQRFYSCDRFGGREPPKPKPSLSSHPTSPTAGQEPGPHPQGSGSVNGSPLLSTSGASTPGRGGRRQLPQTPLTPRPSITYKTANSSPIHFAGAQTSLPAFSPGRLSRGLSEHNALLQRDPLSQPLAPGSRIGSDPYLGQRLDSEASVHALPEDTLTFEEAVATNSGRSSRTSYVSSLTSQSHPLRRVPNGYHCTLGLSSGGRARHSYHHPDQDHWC
T1 sequence (P54289 25-956 partner limits assumed): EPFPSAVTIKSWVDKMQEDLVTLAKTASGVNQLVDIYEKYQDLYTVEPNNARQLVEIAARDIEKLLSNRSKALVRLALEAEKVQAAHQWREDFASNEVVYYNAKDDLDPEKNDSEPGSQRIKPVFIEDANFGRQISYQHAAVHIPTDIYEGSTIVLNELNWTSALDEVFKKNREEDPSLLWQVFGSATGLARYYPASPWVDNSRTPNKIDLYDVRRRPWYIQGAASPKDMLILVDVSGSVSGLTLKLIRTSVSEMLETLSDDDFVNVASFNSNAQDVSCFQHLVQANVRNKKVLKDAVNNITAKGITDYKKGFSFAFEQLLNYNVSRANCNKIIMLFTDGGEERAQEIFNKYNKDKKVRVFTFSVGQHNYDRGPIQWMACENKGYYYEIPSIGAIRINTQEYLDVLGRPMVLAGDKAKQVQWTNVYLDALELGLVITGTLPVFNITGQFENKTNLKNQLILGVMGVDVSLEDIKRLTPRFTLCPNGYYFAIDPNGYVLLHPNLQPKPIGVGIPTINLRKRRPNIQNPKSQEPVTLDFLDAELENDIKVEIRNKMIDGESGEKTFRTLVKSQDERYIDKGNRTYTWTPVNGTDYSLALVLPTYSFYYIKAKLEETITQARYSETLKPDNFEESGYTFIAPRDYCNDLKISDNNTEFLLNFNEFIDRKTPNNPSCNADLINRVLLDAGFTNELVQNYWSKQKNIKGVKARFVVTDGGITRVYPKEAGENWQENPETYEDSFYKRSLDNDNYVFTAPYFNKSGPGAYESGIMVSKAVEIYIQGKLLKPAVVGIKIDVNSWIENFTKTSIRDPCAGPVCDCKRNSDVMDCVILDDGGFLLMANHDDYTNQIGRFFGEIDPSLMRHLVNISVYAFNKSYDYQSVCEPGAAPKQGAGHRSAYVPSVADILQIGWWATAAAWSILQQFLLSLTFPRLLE
T1 sequence (P54289 957-1103 partner limits assumed): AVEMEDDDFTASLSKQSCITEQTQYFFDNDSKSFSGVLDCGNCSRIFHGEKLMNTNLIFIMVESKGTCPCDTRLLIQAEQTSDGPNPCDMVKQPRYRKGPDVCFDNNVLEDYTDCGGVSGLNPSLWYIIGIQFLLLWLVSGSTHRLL
T1 sequence (P54284 whole entry partner): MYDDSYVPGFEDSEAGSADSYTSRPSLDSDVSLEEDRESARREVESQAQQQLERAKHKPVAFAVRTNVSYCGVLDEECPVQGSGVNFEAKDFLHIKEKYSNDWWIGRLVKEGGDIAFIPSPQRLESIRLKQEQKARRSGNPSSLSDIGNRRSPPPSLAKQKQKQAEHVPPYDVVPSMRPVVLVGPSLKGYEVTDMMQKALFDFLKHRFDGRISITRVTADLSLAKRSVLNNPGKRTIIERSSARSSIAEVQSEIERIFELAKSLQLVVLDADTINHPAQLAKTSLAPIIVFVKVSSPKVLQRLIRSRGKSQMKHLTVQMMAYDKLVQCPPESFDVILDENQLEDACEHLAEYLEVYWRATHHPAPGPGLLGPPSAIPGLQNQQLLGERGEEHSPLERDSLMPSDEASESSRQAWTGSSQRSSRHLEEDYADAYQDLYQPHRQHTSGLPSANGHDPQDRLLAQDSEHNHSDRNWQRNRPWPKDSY
The assay is described as follows: FLIPR calcium mobilization assay for N-type calcium channel. Format: cell-based. The conditions noted are these: N-type calcium channel (NTCC) blockers after a calcium mobilization in vitro assay; differentiated IMR32 cells. Here is the method: Cell maintenance and differentiation. Unless noted otherwise, cell culture reagents were purchased from Mediatech of Herndon, Md. IMR32 cells (American Type Culture Collection, ATCC, Manassas, Va.) were routinely cultured in growth medium consisting of minimum essential medium containing 10% fetal bovine serum (FBS, Hyclone, Logan, Utah), 100 U/mL penicillin, 100 μg/mL streptomycin, 2 mM L-glutamine, 1 mM sodium pyruvate, and 1×MEM non-essential amino acids. 80-90% confluent flasks of cells were differentiated using the following differentiation medium: Growth medium plus 1 mM dibutyryl cyclic AMP (Sigma, St. Louis, Mo.), and 2.5 μM bromodeoxyuridine (Sigma). Cells were differentiated for 8 days by replacing differentiation medium every 2-3 days.
FLIPR Calcium Mobilization Assay for N-type Calcium Channel. One day prior to performing this assay, differentiated IMR32 cells were treated with 1× CellStripper, and seeded on poly-D-lysine-coated 96-well clear-bottom black plates (Becton Dickinson, Franklin Lakes, N.J.) at 200,000 cells/well. On the day of the assay, the cell plates were washed with IMR32 buffer (127 mM NaCl, 1 mM KCl, 2 mM MgCl2, 700 μM NaH2PO4, 5 mM CaCl2, 5 mM NaHCO3, 8 mM HEPES, 10 mM glucose, pH 7.4), then pre-stimulated with KCl and loaded as follows: 0.05 mL of IMR^32 buffer, 0.05 mL of each compound tested diluted in IMR^32 buffer containing 20 μM nitrendipine (Sigma), and 0.1 mL KCl dissolved in IMR^32 buffer, plus Fluo-4 were added (3 μM final concentration, Molecular Probes, Eugene, Oreg.). Final test compound concentrations ranged from about 846 μM to about 17 μM, final nitrendipine concentration was 5 μM, and final KCl concentration was 90 mM. After 1 hour, the cells were washed twice with 0.05 mL of each compound tested in nitrendipine-containing IMR32 buffer (no KCl or Fluo-4), and then replaced with 0.1 mL of each compound tested in nitrendipine-containing IMR^32 buffer. Plates were then transferred to a Fluorimetric Imaging Plate Reader (FLIPR^96, Molecular Devices, Inc., Sunnyvale, Calif.) for assay. The FLIPR measured basal Fluo-4 fluorescence for 315 seconds (i.e., 5 minutes and 15 seconds), then added 0.1 mL KCl agonist dissolved in IMR32 buffer and measured fluorescence for another 45 seconds. Final test compound concentrations on the cells after FLIPR read ranged from about 846 μM to about 17 μM, final nitrendipine concentration was 5 μM, and final KCl concentration was 90 mM. Data were collected over the entire time course and analyzed using Excel, Graph Pad Prism (version 3.02, Graph Pad, San Diego, Calif.), or an in-house non-linear regression analysis software.
On to `O=C(C=C1CCN(S(=O)(=O)c2cccc(C(F)(F)F)c2)CC1)NCC1CC1` [Example 22, N-(cyclopropylmethyl)-2-(1-(3-(trifluoromethyl)phenylsulfonyl)piperidin-4-ylidene)acetamide], for which the IC50 was found to be 829 nM.
To `CO/C(=C\C1CN(S(=O)(=O)c2ccc(OC(F)(F)F)cc2)CCO1)C(=O)NC1CC1` (centres unmarked) [Example 44, (Z)—N-cyclopropyl-2-methoxy-3-(4-(4-(trifluoromethoxy)phenylsulfonyl)morpholin-2-yl)acrylamide] belongs 857 nM.
To `O=C(C=C1CCN(S(=O)(=O)c2ccc(OC(F)(F)F)cc2)CC1)NCCC1CC1` [Example 13, N-(2-cyclopropylethyl)-2-(1-(4-(trifluoromethoxy)phenylsulfonyl)piperidin-4-ylidene)Acetamide] belongs 248 nM; to `COC(C(=O)NCC1CC1)=C1CCN(S(=O)(=O)c2ccc(OC(F)(F)F)cc2)CC1` [Example 32, N-(cyclopropylmethyl)-2-methoxy-2-(1-(4-(trifluoromethoxy)phenylsulfonyl)piperidin-4-ylidene)acetamide], 912 nM; to `N#Cc1ccc(CNC(=O)C=C2CCN(S(=O)(=O)c3ccc(OC(F)(F)F)cc3)CC2)cc1` [Example 11, N-(4-cyanobenzyl)-2-(1-(4-(trifluoromethoxy)phenylsulfonyl)piperidin-4-ylidene)Acetamide], 560 nM.
The result for `O=C(/C=C1\CCCN(S(=O)(=O)c2ccc(OC(F)(F)F)cc2)C1)NC1CC1` [Example 41, (E)-N-cyclopropyl-2-(1-(4-(trifluoromethoxy)phenylsulfonyl)piperidin-3-ylidene)acetamide] reads 990 nM; that for `O=C(C=C1CCN(S(=O)(=O)c2ccc(OC(F)(F)F)cc2)CC1)NCc1ccccc1` [Example 3, N-benzyl-2-(1-(4-(trifluoromethoxy)phenylsulfonyl)piperidin-4-ylidene)Acetamide], 598 nM; that for `CN(Cc1ccc(F)cc1)C(=O)C=C1CCN(S(=O)(=O)c2ccc(OC(F)(F)F)cc2)CC1` [Example 10, N-(4-fluorobenzyl)-N-methyl-2-(1-(4-(trifluoromethoxy)phenylsulfonyl)piperidin-4-ylidene)Acetamide], 161 nM.
For `O=C(/C=C1\CCCN(S(=O)(=O)c2ccc(OC(F)(F)F)cc2)C1)NCC1CC1` [Example 40, (E)-N-(cyclopropylmethyl)-2-(1-(4-(trifluoromethoxy)phenylsulfonyl)piperidin-3-ylidene)acetamide], the IC50 is 695 nM.
The result for `CO/C(=C\C1CCN(S(=O)(=O)c2ccc(OC(F)(F)F)cc2)CC1)C(=O)NC1CC1` [Example 37, (Z)—N-cyclopropyl-2-methoxy-3-(1-(4-(trifluoromethoxy)phenylsulfonyl)piperidin-4-yl)acrylamide] reads 555 nM; that for `CC(C)(c1cccc(C(F)(F)F)c1)N1CCC(=CC(=O)NCC2CC2)CC1` [Example 31, N-(cyclopropylmethyl)-2-(1-(2-(3-(trifluoromethyl)phenyl)propan-2-yl)piperidin-4-ylidene)acetamide], 681 nM; that for `O=C(C=C1CCN(S(=O)(=O)c2ccc(OC(F)(F)F)cc2)CC1)NC1(c2ccc(F)cc2)CC1` [Example 12, N-(1-(4-fluorophenyl)cyclopropyl)-2-(1-(4-(trifluoromethoxy)phenylsulfonyl)piperidin-4-ylidene)Acetamide], 361 nM.
The result for `CC(C)OCCNC(=O)C=C1CCN(S(=O)(=O)c2ccc(OC(F)(F)F)cc2)CC1` [Example 15, N-(2-isopropoxyethyl)-2-(1-(4-(trifluoromethoxy)phenylsulfonyl)piperidin-4-ylidene)Acetamide] reads 718 nM.
To `CO/C(=C/C1CCN(S(=O)(=O)c2ccc(OC(F)(F)F)cc2)CC1)C(=O)NC1CC1` [Example 38, (E)-N-cyclopropyl-2-methoxy-3-(1-(4-(trifluoromethoxy)phenylsulfonyl)piperidin-4-yl)acrylamide] belongs 832 nM; to `COC(=O)C(NC(=O)C=C1CCN(S(=O)(=O)c2ccc(OC(F)(F)F)cc2)CC1)c1ccc(F)cc1` (centres unmarked) [Example 19, methyl 2-(4-fluorophenyl)-2-(2-(1-(4-(trifluoromethoxy)phenylsulfonyl)piperidin-4-ylidene)acetamido)Acetate], 865 nM; to `O=C(C=C1CCN(S(=O)(=O)c2ccc(OC(F)(F)F)cc2)CC1)NC(CO)c1ccc(F)cc1` (centres unmarked) [Example 20, N-(1-(4-fluorophenyl)-2-hydroxyethyl)-2-(1-(4-(trifluoromethoxy)phenylsulfonyl)piperidin-4-ylidene)acetamide], 822 nM.
In the case of `O=C(C=C1CCN(S(=O)(=O)c2ccc(OC(F)(F)F)cc2)CC1)NCc1ccc(F)cc1` [Example 9, N-(4-fluorobenzyl)-2-(1-(4-(trifluoromethoxy)phenylsulfonyl)piperidin-4-ylidene)Acetamide], the IC50 amounted to 115 nM.
